A word on the IC50: it is the concentration that gives 50% inhibition.

This is an account of results in patent US7084136B2, “Drug composition antagonistic to both PGD2/TXA2 receptors” (Shionogi & Co., Ltd., priority 2000, dated 2006).

The target in one assay is T1, PGD2 receptor (Homo sapiens, UniProt Q13258).
T1 construct: A suspension adjusted to contain the platelets at a final concentration of 5×10^8/ml was warmed at 37° C; endogenous in cells; host or cells: washed human platelets from a healthy volunteer
T1 sequence (Q13258 1-359): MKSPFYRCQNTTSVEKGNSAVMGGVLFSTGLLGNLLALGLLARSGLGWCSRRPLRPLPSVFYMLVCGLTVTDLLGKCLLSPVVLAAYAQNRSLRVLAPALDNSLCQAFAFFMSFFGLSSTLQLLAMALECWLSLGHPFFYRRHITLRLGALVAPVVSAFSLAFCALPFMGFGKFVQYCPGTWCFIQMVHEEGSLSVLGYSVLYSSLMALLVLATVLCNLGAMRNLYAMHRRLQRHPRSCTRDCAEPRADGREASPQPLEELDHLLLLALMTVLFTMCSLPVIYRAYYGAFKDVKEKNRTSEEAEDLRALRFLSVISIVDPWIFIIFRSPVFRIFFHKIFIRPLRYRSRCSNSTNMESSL
Kind of assay: Binding activity to PGD2 receptor ([3H]PGD2, human platelet membrane fraction). On the procedure: Experiment 1 Binding Activity to PGD2 Receptor
(1) Preparation of Human Platelet Membrane Fraction
Blood was collected using a plastic syringe containing 3.8% sodium citrate from the vein of healthy volunteers (adult male and female), then put into a plastic test tube and mixed by slow-reversion. The sample was then centrifuged at 1800 rpm, for 10 min at room temperature, and the supernatant containing PRP (platelet-rich plasma) was collected. The PRP was re-centrifuged at 2300 rpm, for 22 min at room temperature to obtain platelets. The platelets were homogenized using a homogenizer (Ultra-Turrax) followed by centrifugation 3 times at 20,000 rpm, 10 min at 4° C. to obtain a platelet membrane fraction. After protein determination, the membrane fraction was adjusted to 2 mg/ml and preserved in a refrigerator at −80° C. until using for the binding test.
(2) Binding to PGD2 Receptor
To a binding-reaction solution (50 mM Tris/HCl, pH 7.4, 5 mM MgCl2) (0.2 ml) were added the human platelet membrane fraction (0.1 mg) and 5 nM [^3H]PGD2 (115 Ci/mmol), and the mixture was reacted at 4° C. for 90 min. After the reaction, the mixture was filtered through a glass fiber filter paper and washed several times with cooled physiological saline, then the radioactivity retained on the filter paper was measured. The specific-binding ratio was calculated by subtracting the non-specific binding ratio which is the radioactivity similarly measured in the presence of 10 μM PGD2 from the total binding. The inhibitory activity of each compound was expressed as the concentration required for 50% inhibition (IC50), which was determined by depicting a substitution curve by plotting the binding ratio (%) in the presence of each compound, where the binding ratio in the absence of a test compound is 100%.

The test system of another assay is Male Hartley guinea pigs. Kind of assay: Antigen-induced bronchial hyperresponsiveness (acetylcholine PD200, OVA-sensitized guinea pigs). It counts as in vivo, guinea pig. To be noted: for inhibition of the induction of bronchial hyperresponsiveness: summary of Table 74 to Table 76, oral, guinea pig. How it is done: Comparative Experiment 2 Antigen-Induced Bronchial Hyperresponsiveness
Male Hartley guinea pigs were actively sensitized to ovalbumin (OVA) by inhalation of aerosolized solution of 1% ovalbumin twice at a week interval. One week after the second sensitization, the animals were treated with antihistamine, diphenhydramine (10 mg/kg, i.p.), and then challenged with 1% OVA aerosol for 5 min. Twenty four hours later, acetylcholine at doses at 3.13, 6.25, 12.5, 25, 50 and 100 micro g/kg was sequentially injected into the animals which were anesthetized with pentobarbital (30 mg/kg, i.p.). The bronchoconstriction induced by each dose of acetylcholine was monitored by the modified method of Konzett-Rössler technique, and made a dose-response curve of acetylcholine. Using the dose-response curve, the dose required for 200% increase in bronchoconstriction from baseline (PD200) was calculated in each animal and used as an indication of bronchial responsiveness. Compounds were orally administered 1 hour before antigen challenge. **: P<0.01 vs Vehicle(Dunnett's test), ^##: P<0.01 vs Vehicle(Student's t test).

The test system of another assay is TxA2 receptor. Kind of assay: Acceleration of vascular permeability of conjunctiva induced by U-46619 (Evans blue dye leakage). It counts as in vivo, guinea pig. The note with it: for ED50 TXA2 (U-46619): oral, 1 h before challenge, 0.1% U-46619 instillation, conjunctival dye leakage, guinea pigs; for inhibition of the increase in vascular permeability in conjunctiva caused by U-46619: summary of Table 80, oral 1 h before challenge, guinea pig. How it is done:
Acceleration of Vascular Permeability of Conjunctiva Induced by PGD2 and U-46619
Using male Hartley guinea pigs, PGD2- and TxA2 receptor-mediated increase in conjunctival vascular permeability was produced by instillation of each 10 μl solution of either 0.1% PGD2 or U-46619 (TXA2 receptor agonist) to the both eyes without anesthetization. Immediately after that, Evans blue dye (20 mg/kg) was intravenously injected. 30 min after the challenge, guinea pigs were sacrificed by bleeding under anesthesia with Pentobarbital (30 mg/kg, i.p.) and the tissue of conjunctiva was removed. The dye leaked into the tissue was extracted in formamide 3 ml at 60° C. for more than 24 h, and then centrifuged. The absorbance of the supernatant was measured at 620 nm. The amount of dye was calculated from the calibration curve of Evans blue dye. Each compound was suspended in 0.5% methyl-cellulose and administrated orally at 1 h before the challenge. The antagonistic activity was evaluated by the inhibition ratio against the dye leaked into conjunctiva caused by PGD2 or U-46619 at each dose and then a 50% effective dose of inhibition (ED50 value) of each compound was calculated.

Setting [1] is: comparative experiment in accordance with Experiment 1, read-out: Experiment 1 Antagonistic activity against PGD2 receptor IC50.

Molecules are shown by their SMILES. Where two headings read alike, the source gives them in different places. Marks after values point to notes of the source that are not given here. Where only a bound is given, the exact number is not on record here.

For `O=C(O)CCC/C=C\C[C@H]1[C@@H]2CC[C@@H](C2)[C@@H]1NS(=O)(=O)c1ccccc1` [A, reference compound], on PGD2 receptor (setting [1]), the IC50 was > 10000 nM. For the same molecule, the “Log PD200” value in the assay on Male Hartley guinea pigs (1 mg/kg orally 1 hour before antigen challenge, OVA-sensitized guinea pigs, acetylcholine) came to 1.29 ± 0.04. Also, in the assay on Male Hartley guinea pigs (10 mg/kg orally 1 hour before antigen challenge, OVA-sensitized guinea pigs, acetylcholine), the “Log PD200” value is listed as 1.61 ± 0.09**. Also, the “inhibition of the induction of bronchial hyperresponsiveness” value in the assay with Male Hartley guinea pigs is given as “suppressed”. Also, in the assay on TxA2 receptor, the “ED50 TXA2 (U-46619)” value came to 0.017 mg/kg and the “inhibition of the increase in vascular permeability in conjunctiva caused by U-46619” value is “suppressed”.
For the molecule `Cc1cccn1S(=O)(=O)c1ccc(C(=O)N[C@@H]2[C@@H](CCCC/C=C/C(=O)O)C[C@H]3C[C@@H]2C3(C)C)s1` [II-7I-55a], the IC50 at PGD2 receptor (setting [1]) stood at 1.8 nM. Also, the IC50 at PGD2 receptor (human platelet membrane fraction, read-out: Binding activity to PGD2 receptor in human platelet membrane fraction IC50) stood at 1.8 nM. The “Log PD200” value in the assay with Male Hartley guinea pigs (10 mg/kg orally 1 hour before antigen challenge, acetylcholine dose for 200% increase in bronchoconstriction, 24 h after OVA challenge) is reported as 1.442 ± 0.055**. The “inhibition of the induction of bronchial hyperresponsiveness” value in the assay with Male Hartley guinea pigs was “suppressed”. In the assay with TxA2 receptor, the “ED50 TXA2 (U-46619)” value is reported as 0.030 mg/kg and the “inhibition of the increase in vascular permeability in conjunctiva caused by U-46619” value is on record as “showed both responses”.
